Results published in patent US9776995B2, “Bicyclic sulfonamide compounds as sodium channel inhibitors” (AMGEN INC., priority 2013, dated 2017).
pIC50: −log10 of the molar value.

What follows are compounds tested against Nav 1.7 (Homo sapiens (Human), UniProt Q15858) (assay: in-vitro Nav 1.7 PX data). Settings: PatchXpress (PX), in vitro.
Assay type: cell-based

Nav 1.7, sequence (Q15858 whole entry): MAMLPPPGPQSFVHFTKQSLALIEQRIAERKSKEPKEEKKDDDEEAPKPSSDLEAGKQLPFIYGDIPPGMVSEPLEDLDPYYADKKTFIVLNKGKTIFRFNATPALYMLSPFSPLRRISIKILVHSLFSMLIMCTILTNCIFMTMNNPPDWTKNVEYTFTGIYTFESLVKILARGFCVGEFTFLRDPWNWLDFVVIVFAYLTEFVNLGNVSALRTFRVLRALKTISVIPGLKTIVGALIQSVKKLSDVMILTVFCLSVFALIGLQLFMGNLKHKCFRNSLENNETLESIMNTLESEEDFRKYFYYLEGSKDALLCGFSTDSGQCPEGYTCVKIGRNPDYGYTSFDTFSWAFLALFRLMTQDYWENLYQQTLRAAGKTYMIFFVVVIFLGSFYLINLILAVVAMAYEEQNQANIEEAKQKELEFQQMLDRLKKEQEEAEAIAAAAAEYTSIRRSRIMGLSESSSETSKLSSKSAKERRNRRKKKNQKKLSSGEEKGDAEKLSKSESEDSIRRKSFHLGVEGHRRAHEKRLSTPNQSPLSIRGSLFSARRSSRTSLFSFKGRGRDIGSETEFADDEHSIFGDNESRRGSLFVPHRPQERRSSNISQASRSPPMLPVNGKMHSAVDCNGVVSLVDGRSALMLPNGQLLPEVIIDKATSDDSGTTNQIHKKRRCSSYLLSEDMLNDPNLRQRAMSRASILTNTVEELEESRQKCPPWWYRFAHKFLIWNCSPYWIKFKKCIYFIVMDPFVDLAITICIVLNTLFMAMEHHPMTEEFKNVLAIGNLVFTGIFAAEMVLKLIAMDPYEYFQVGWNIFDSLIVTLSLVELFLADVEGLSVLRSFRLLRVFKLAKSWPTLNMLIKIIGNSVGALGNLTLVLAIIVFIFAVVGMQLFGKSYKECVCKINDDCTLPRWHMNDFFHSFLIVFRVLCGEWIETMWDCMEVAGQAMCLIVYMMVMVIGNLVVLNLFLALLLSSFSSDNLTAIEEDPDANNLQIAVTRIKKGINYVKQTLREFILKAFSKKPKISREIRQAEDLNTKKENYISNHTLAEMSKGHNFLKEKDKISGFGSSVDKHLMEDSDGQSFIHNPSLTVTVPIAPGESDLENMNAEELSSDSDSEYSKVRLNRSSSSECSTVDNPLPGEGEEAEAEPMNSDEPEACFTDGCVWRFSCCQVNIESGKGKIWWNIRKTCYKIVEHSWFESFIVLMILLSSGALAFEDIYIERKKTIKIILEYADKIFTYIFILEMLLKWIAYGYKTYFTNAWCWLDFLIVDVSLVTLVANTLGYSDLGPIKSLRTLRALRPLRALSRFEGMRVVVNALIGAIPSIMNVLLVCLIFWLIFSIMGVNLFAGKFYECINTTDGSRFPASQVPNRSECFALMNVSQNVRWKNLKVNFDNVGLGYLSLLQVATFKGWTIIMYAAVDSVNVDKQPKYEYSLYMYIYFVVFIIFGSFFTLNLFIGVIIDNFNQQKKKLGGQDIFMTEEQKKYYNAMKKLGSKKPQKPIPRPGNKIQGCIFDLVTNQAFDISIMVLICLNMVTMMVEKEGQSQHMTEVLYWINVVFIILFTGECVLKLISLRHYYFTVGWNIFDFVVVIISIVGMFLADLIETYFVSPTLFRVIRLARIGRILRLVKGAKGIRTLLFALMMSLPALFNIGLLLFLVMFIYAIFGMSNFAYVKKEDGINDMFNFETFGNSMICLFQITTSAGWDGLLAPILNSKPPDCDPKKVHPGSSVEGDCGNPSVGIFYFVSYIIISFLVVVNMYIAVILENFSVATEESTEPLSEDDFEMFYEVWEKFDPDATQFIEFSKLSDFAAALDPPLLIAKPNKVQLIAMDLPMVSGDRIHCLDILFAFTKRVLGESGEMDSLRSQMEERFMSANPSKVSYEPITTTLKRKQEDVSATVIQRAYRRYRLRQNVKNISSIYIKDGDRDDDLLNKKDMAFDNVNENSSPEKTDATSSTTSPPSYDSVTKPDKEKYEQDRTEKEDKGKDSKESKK

| Structure (SMILES) | pIC50 |
| --- | --- |
| COc1nc(N2CCC(F)(F)CC2)ccc1-c1nccc2cc(S(=O)(=O)Nc3ccncn3)ccc12 [Example 71, 1-(6-(4,4-difluoro-1-piperidinyl)-2-methoxy-3-pyridinyl)-N-4-pyrimidinyl-6-isoquinolinesulfonamide] | 6.08 |
| COc1nc(N(CC(C)C)CC(C)C)ccc1-c1nccc2cc(S(=O)(=O)Nc3ccncn3)ccc12 [Example 46, 1-(6-(DIISOBUTYLAMINO)-2-METHOXYPYRIDIN-3-YL)-N-(PYRIMIDIN-4-YL)ISOQUINOLINE-6-SULFONAMIDE] | 4.87 |
| COc1nc(OC2CCCCC2)ccc1-c1nccc2cc(S(=O)(=O)Nc3ccncn3)ccc12 [Example 65, 1-(6-(cyclohexyloxy)-2-methoxy-3-pyridinyl)-N-4-pyrimidinyl-6-isoquinolinesulfonamide] | 5.76 |
| COc1nc(Oc2ccc(F)cc2)ccc1-c1nccc2cc(S(=O)(=O)Nc3ccncn3)ccc12 [Example 45, 1-(6-(4-FLUOROPHENOXY)-2-METHOXYPYRIDIN-3-YL)-N-(PYRIMIDIN-4-YL)ISOQUINOLINE-6-SULFONAMIDE] | 5.82 |
| COc1cc(-c2cc(F)cnc2OC)c(F)cc1-c1nccc2cc(S(=O)(=O)Nc3ncccn3)ccc12 [Example 92, 1-(5-fluoro-4-(5-fluoro-2-methoxy-3-pyridinyl)-2-methoxyphenyl)-N-2-pyrimidinyl-6-isoquinolinesulfonamide] | 6.56 |
| COc1nc(OCC(C)(C)C)ccc1-c1nccc2cc(S(=O)(=O)Nc3ccncn3)ccc12 [Example 67, 1-(6-(2,2-dimethylpropoxy)-2-methoxy-3-pyridinyl)-N-4-pyrimidinyl-6-isoquinolinesulfonamide] | 6.00 |
| COc1nc(NC2CCC(F)(F)CC2)ccc1-c1nccc2cc(S(=O)(=O)Nc3ccncn3)ccc12 [Example 74, 1-(6-((4,4-difluorocyclohexyl)amino)-2-methoxy-3-pyridinyl)-N-4-pyrimidinyl-6-isoquinolinesulfonamide] | 6.09 |

The next lines start with the values.

| pIC50 | Structure (SMILES) |
| --- | --- |
| 7.46 | COc1cc(-c2cc(F)cc(F)c2)c(F)cc1-c1nccc2cc(S(=O)(=O)Nc3ccon3)ccc12 [Example 98, N-3-isoxazolyl-1-(2,3′,5′-trifluoro-5-methoxy-4-biphenylyl)-6-isoquinolinesulfonamide] |
| 7.13 | COc1cc(-c2ccc(C)c(Cl)c2)c(Cl)cc1-c1nccc2cc(S(=O)(=O)Nc3ccon3)ccc12 [Example 96, 1-(2,3′-dichloro-5-methoxy-4′-methyl-4-biphenylyl)-N-3-isoxazolyl-6-isoquinolinesulfonamide] |
| 7.17 | COc1cc(-c2cc(F)cnc2OC)c(F)cc1-c1nccc2cc(S(=O)(=O)Nc3ccon3)ccc12 [Example 93, 1-(5-fluoro-4-(5-fluoro-2-methoxy-3-pyridinyl)-2-methoxyphenyl)-N-3-isoxazolyl-6-isoquinolinesulfonamide] |
| 7.00 | COc1cc(-c2ccc(C)c(Cl)c2)c(F)cc1-c1nccc2cc(S(=O)(=O)Nc3ccon3)ccc12 [Example 91, 1-(3′-chloro-2-fluoro-5-methoxy-4′-methyl-4-biphenylyl)-N-3-isoxazolyl-6-isoquinolinesulfonamide] |
| 7.02 | COc1cc(-c2ccc(F)c(C)c2)c(F)cc1-c1nccc2cc(S(=O)(=O)Nc3ccon3)ccc12 [Example 89, 1-(2,4′-difluoro-5-methoxy-3′-methyl-4-biphenylyl)-N-3-isoxazolyl-6-isoquinolinesulfonamide] |
| 6.95 | COc1cc(-c2cccc(Cl)c2)c(F)cc1-c1nccc2cc(S(=O)(=O)Nc3ncccn3)ccc12 [Example 97, 1-(3′-chloro-2-fluoro-5-methoxy-4-biphenylyl)-N-2-pyrimidinyl-6-isoquinolinesulfonamide] |
| 6.75 | COc1cc(-c2ccc(Cl)c(C)c2)c(F)cc1-c1nccc2cc(S(=O)(=O)Nc3cccnn3)ccc12 [Example 87, 1-(4′-chloro-2-fluoro-5-methoxy-3′-methyl-4-biphenylyl)-N-3-pyridazinyl-6-isoquinolinesulfonamide] |

Same assay, conditions: in-vitro Nav 1.7 PX data

| Structure (SMILES) | pIC50 |
| --- | --- |
| Cc1ccc(OCC2CC2)cc1-c1nccc2cc(S(=O)(=O)Nc3ccncn3)ccc12 [Example 153, 1-(5-(cyclopropylmethoxy)-2-methylphenyl)-N-4-pyrimidinyl-6-isoquinolinesulfonamide] | 5.11 |
| Cc1ccc(Oc2ccccn2)cc1-c1nccc2cc(S(=O)(=O)Nc3ccncn3)ccc12 [Example 40, 1-(2-METHYL-5-(PYRIDIN-2-YLOXY)PHENYL)-N-(PYRIMIDIN-4-YL)ISOQUINOLINE-6-SULFONAMIDE] | 5.24 |
| COc1ncc(-c2ccccc2)cc1-c1nccc2cc(S(=O)(=O)Nc3ccncn3)ccc12 [Example 152, 1-(2-methoxy-5-phenyl-3-pyridinyl)-N-4-pyrimidinyl-6-isoquinolinesulfonamide] | 5.61 |

The remaining lines, values ahead:

| pIC50 | Structure (SMILES) |
| --- | --- |
| 5.84 | COc1cc(NS(=O)(=O)c2ccc3c(-c4ccc(-c5cc(F)cc(F)c5)cc4OC)nccc3c2)no1 [Example 149, 1-(3′,5′-difluoro-3-methoxy-4-biphenylyl)-N-(5-methoxy-3-isoxazolyl)-6-isoquinolinesulfonamide] |
| 6.19 | COc1cc(-c2cc(F)cc(F)c2)ccc1-c1nccc2cc(S(=O)(=O)Nc3cnccn3)ccc12 [Example 140, 1-(3′,5′-difluoro-3-methoxy-4-biphenylyl)-N-2-pyrazinyl-6-isoquinolinesulfonamide] |
| 5.48 | COc1cc(-c2nccc3cc(S(=O)(=O)Nc4ccon4)ccc23)c(C)cc1-c1ccc(Cl)c(C)c1 [Example 35] |
| 5.57 | COc1cc(-c2nccc3cc(S(=O)(=O)Nc4ccon4)ccc23)c(C)cc1-c1cccc(F)c1 [Example 167, 1-(3′-fluoro-2-methoxy-5-methyl-4-biphenylyl)-N-3-isoxazolyl-6-isoquinolinesulfonamide] |
| 5.04 | COc1cc(C#N)c(-c2cc(F)cc(F)c2)cc1-c1nccc2cc(S(=O)(=O)Nc3ccncn3)ccc12 [Example 145, 1-(6-cyano-3′,5′-difluoro-4-methoxy-3-biphenylyl)-N-4-pyrimidinyl-6-isoquinolinesulfonamide] |

Same assay, conditions: in-vitro PX

| pIC50 | Structure (SMILES) |
| --- | --- |
| 5.98 | COc1cc(-c2cccc(F)c2)ccc1-c1ccnc2cc(S(=O)(=O)Nc3nncs3)ccc12 [Example 210, 4-(3′-fluoro-3-methoxy-4-biphenylyl)-N-1,3,4-thiadiazol-2-yl-7-quinolinesulfonamide] |
| 5.73 | COc1nc(Cl)c(Cl)cc1-c1nccc2cc(S(=O)(=O)Nc3nncs3)ccc12 [Example 240, 1-(5,6-dichloro-2-methoxy-3-pyridinyl)-N-1,3,4-thiadiazol-2-yl-6-isoquinolinesulfonamide] |
| 7.29 | COc1cc(-c2cccc(F)c2)c(Cl)cc1-c1ncnc2cc(S(=O)(=O)Nc3cnsn3)ccc12 [Example 207, 4-(2-chloro-3′-fluoro-5-methoxy-4-biphenylyl)-N-1,2,5-thiadiazol-3-yl-7-quinazolinesulfonamide] |
| 5.87 | COc1cc(N2CC(F)(F)C2)c(C#N)cc1-c1nccc2cc(S(=O)(=O)Nc3nncs3)ccc12 [Example 24, 1-(5-CYANO-4-(3,3-DIFLUOROAZETIDIN-1-YL)-2-METHOXYPHENYL)-N-(1,3,4-THIADIAZOL-2-YL)ISOQUINOLINE-6-SULFONAMIDE] |
| 5.86 | COc1cc(-c2cccc(F)n2)c(F)cc1-c1nccc2cc(S(=O)(=O)Nc3nncs3)ccc12 [Example 212, 1-(5-fluoro-4-(6-fluoro-2-pyridinyl)-2-methoxyphenyl)-N-1,3,4-thiadiazol-2-yl-6-isoquinolinesulfonamide] |
| 5.73 | COc1nc(N(C)C)c(Cl)cc1-c1nccc2cc(S(=O)(=O)Nc3nncs3)ccc12 [Example 242, 1-(5-chloro-6-(dimethylamino)-2-methoxy-3-pyridinyl)-N-1,3,4-thiadiazol-2-yl-6-isoquinolinesulfonamide] |

Same assay, conditions: in-vitro PX (PatchXpress) data

| pIC50 | Structure (SMILES) |
| --- | --- |
| 5.98 | COc1ccc(-c2ccc(-c3nccc4cc(S(=O)(=O)Nc5nncs5)ccc34)c(OC)c2)c(F)n1 [Example 196, 1-(4-(2-fluoro-6-methoxy-3-pyridinyl)-2-methoxyphenyl)-N-1,3,4-thiadiazol-2-yl-6-isoquinolinesulfonamide] |
| 5.58 | COc1cc(-c2ncnc3cc(S(=O)(=O)Nc4ccon4)ccc23)c(C)cc1-c1ccc(Cl)c(C)c1 [Example 34] |
| 5.31 | O=S(=O)(Nc1nncs1)c1ccc2c(-c3ccc(C(F)(F)F)cc3C3CC3)ncnc2c1 [Example 192, 4-(2-cyclopropyl-4-(trifluoromethyl)phenyl)-N-1,3,4-thiadiazol-2-yl-7-quinazolinesulfonamide] |

Same assay, conditions: in-vitro PX data

| Structure (SMILES) | pIC50 |
| --- | --- |
| Cn1nccc1-c1cc(-c2cc(F)cc(F)c2)ccc1-c1nccc2cc(S(=O)(=O)Nc3ccon3)ccc12 [Example 4, 1-(3′,5′-DIFLUORO-3-(1-METHYL-1H-PYRAZOL-5-YL)-[1,1′-BIPHENYL]-4-YL)-N-(ISOXAZOL-3-YL)ISOQUINOLINE-6-SULFONAMIDE 2,2,2-TRIFLUOROACETATE] | 6.83 |
| COc1cc(-c2cc(F)cc(F)c2)ccc1-c1nccc2cc(S(=O)(=O)Nc3ncc(C#N)s3)ccc12 [Example 132, N-(5-cyano-1,3-thiazol-2-yl)-1-(3′,5′-difluoro-3-methoxy-4-biphenylyl)-6-isoquinolinesulfonamide] | 6.16 |
| COc1cc(-c2cccc(F)c2)c(C#N)cc1-c1nccc2cc(S(=O)(=O)Nc3ncccn3)ccc12 [Example 109, 1-(2-cyano-3′-fluoro-5-methoxy-4-biphenylyl)-N-2-pyrimidinyl-6-isoquinolinesulfonamide] | 6.62 |

Results, then the compound that gave them:

| pIC50 | Structure (SMILES) |
| --- | --- |
| 5.79 | COc1cc(-c2cc(F)cc(F)c2)ccc1-c1nccc2cc(S(=O)(=O)Nc3cncc(C)n3)ccc12 [Example 131, 1-(3′,5′-difluoro-3-methoxy-4-biphenylyl)-N-(6-methyl-2-pyrazinyl)-6-isoquinolinesulfonamide] |
| 7.53 | COc1cc(-c2cc(F)cnc2OC)c(Cl)cc1-c1nccc2cc(S(=O)(=O)Nc3ccon3)ccc12 [Example 105, 1-(5-chloro-4-(5-fluoro-2-methoxy-3-pyridinyl)-2-methoxyphenyl)-N-3-isoxazolyl-6-isoquinolinesulfonamide] |
| 8.08 | COc1cc(-c2cccc(Cl)c2)c(F)cc1-c1ncnc2cc(S(=O)(=O)Nc3ccon3)ccc12 [Example 104, 4-(3′-chloro-2-fluoro-5-methoxy-4-biphenylyl)-N-3-isoxazolyl-7-quinazolinesulfonamide] |
